In ChEMBL document CHEMBL5291721, “A preclinical secondary pharmacology resource illuminates target-adverse drug reaction associations of marketed drugs” (Nat Commun, 2023):

Experiments:
[1] = target: T1, Progesterone receptor (Homo sapiens, UniProt P06401); type: functional
T1 sequence (P06401 whole entry): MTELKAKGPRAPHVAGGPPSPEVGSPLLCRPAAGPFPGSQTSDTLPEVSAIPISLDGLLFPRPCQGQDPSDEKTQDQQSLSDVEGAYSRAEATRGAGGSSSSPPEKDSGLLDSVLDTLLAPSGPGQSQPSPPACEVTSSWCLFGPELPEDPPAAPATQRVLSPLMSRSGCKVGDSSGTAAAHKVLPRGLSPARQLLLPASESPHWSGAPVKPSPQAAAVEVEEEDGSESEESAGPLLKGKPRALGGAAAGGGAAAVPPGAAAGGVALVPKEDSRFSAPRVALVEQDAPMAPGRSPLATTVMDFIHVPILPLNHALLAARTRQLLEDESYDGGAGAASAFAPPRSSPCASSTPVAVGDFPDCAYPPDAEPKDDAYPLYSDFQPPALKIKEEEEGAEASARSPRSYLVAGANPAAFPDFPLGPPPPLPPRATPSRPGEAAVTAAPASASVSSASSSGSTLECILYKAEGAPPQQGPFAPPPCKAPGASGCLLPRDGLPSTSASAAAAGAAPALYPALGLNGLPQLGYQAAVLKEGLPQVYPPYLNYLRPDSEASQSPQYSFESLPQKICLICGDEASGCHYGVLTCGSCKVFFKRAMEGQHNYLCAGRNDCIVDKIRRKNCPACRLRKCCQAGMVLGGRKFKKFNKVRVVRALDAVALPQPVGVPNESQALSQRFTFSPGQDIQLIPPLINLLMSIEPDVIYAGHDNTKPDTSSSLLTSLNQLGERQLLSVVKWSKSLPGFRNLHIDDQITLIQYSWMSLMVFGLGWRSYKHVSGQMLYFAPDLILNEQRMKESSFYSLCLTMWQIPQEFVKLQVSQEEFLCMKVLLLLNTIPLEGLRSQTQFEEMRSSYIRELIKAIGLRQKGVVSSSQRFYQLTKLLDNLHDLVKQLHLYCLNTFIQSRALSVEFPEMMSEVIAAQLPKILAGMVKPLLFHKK

[2] = target: T2, Glucocorticoid receptor (Homo sapiens, UniProt P04150)
T2 sequence (P04150 whole entry): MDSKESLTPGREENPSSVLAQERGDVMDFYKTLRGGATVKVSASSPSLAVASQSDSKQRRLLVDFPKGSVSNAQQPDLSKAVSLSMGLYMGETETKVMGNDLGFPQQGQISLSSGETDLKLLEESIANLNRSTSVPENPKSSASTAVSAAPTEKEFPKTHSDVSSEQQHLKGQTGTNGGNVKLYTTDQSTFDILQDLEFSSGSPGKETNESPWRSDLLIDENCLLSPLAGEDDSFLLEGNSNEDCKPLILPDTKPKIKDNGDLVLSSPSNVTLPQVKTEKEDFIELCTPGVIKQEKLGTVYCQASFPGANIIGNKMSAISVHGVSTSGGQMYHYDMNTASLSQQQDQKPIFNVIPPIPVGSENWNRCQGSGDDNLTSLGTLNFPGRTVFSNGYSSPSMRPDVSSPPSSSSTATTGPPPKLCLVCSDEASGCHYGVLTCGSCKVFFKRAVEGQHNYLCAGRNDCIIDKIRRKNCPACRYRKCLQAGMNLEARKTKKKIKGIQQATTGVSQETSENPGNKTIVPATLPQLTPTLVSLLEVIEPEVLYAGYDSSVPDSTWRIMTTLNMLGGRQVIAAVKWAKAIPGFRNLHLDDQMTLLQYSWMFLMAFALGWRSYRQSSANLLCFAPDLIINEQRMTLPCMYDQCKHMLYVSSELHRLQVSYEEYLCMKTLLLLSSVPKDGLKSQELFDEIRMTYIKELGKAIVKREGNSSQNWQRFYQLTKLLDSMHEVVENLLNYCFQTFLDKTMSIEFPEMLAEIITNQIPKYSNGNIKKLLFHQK

[3] = target: T3, Thromboxane A2 receptor (Homo sapiens, UniProt P21731); type: functional, cell-based
T3 sequence (P21731 whole entry): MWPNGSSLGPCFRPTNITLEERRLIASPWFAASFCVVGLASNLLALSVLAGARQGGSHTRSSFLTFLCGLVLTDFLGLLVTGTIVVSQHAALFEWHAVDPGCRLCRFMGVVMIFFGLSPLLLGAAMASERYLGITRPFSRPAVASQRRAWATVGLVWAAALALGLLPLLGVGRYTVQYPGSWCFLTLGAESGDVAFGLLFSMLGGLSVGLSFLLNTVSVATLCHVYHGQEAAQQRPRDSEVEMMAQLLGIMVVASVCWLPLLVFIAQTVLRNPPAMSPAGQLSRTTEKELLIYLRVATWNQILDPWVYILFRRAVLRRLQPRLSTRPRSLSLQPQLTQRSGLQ

[4] = target: T4, Alpha-2A adrenergic receptor (Homo sapiens, UniProt P08913)
T4 sequence (P08913 whole entry): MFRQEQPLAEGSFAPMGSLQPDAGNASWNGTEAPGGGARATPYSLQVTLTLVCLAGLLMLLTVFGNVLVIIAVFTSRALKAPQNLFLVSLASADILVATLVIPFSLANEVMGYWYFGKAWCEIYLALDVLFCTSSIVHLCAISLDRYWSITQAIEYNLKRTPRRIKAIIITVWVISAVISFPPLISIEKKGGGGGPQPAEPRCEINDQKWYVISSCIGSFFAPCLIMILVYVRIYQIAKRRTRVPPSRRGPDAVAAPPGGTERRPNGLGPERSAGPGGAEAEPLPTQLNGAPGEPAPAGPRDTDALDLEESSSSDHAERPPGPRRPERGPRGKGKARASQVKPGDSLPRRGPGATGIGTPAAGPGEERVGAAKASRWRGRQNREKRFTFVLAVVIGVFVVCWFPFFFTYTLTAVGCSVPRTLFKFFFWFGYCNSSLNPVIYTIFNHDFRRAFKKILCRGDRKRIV

[5] = target: T5, Muscarinic acetylcholine receptor M2 (Homo sapiens, UniProt P08172)
T5 sequence (P08172 whole entry): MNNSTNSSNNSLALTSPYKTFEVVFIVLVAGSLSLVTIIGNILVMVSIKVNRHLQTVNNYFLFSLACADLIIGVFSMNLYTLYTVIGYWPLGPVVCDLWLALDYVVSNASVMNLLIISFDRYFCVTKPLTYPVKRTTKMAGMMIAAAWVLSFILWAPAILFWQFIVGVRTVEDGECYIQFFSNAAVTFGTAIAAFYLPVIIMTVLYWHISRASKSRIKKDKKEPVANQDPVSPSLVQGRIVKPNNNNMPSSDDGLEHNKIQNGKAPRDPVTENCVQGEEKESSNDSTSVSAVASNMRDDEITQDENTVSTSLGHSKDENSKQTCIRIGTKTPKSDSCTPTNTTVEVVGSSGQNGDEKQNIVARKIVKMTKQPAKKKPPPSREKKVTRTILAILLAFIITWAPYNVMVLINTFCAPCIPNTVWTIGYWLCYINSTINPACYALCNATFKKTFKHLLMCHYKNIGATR
Note: assay procedure not described here.

Row | SMILES | AC50 [1] | AC50 [2] | AC50 [3] | AC50 [4] | AC50 [5]
1 | CCCCN1C[C@H](O)[C@@H](O)[C@H](O)[C@H]1CO | > 30 µM | > 30 µM | – | – | –
2 | CCOC(=O)[C@H](CCc1ccccc1)N[C@@H](C)C(=O)N1[C@H](C(=O)O)C[C@@H]2CCC[C@@H]21 | – | > 30 µM | – | – | –
3 | Nc1nc(NC2CC2)c2ncn([C@H]3C=C[C@@H](CO)C3)c2n1 [ABACAVIR] | > 30 µM | > 30 µM | – | – | –
4 | CC(=O)NCCCS(=O)(=O)O [ACAMPROSATE] | > 30 µM | > 30 µM | – | – | –
5 | CC(=O)Nc1ccc(O)cc1 [ACETAMINOPHEN] | > 30 µM | – | > 30 µM | > 30 µM | > 30 µM
6 | CCCSc1ccc2nc(NC(=O)OC)[nH]c2c1 [ALBENDAZOLE] | > 10 µM | > 10 µM | – | – | –
7 | COc1cc2nc(N(C)CCCNC(=O)C3CCCO3)nc(N)c2cc1OC (stereo unspecified) [ALFUZOSIN] | > 30 µM | > 30 µM | – | – | –
8 | C=CCc1ccccc1OCC(O)CNC(C)C (stereo unspecified) [ALPRENOLOL] | > 30 µM | – | > 0.3 µM | > 0.3 µM | > 0.3 µM
9 | NCC(CC(=O)O)c1ccc(Cl)cc1 (stereo unspecified) [BACLOFEN] | > 30 µM | > 30 µM | > 30 µM | > 30 µM | > 30 µM
10 | CC(C)C[C@H]1C(=O)N2CCC[C@H]2[C@]2(O)O[C@](NC(=O)[C@@H]3C=C4c5cccc6[nH]c(Br)c(c56)C[C@H]4N(C)C3)(C(C)C)C(=O)N12 [BROMOCRIPTINE] | > 30 µM | > 30 µM | > 3 µM | – | 29.1 µM
11 | Cc1ccc(-c2cc(C(F)(F)F)nn2-c2ccc(S(N)(=O)=O)cc2)cc1 [CELECOXIB] | – | > 30 µM | – | – | –
12 | CC1=C(C(=O)O)N2C(=O)[C@@H](NC(=O)[C@H](N)c3ccccc3)[C@H]2SC1 [CEPHALEXIN ANHYDROUS] | – | > 30 µM | – | – | –
13 | CN1C(=O)CCS(=O)(=O)C1c1ccc(Cl)cc1 (stereo unspecified) [CHLORMEZANONE] | > 10 µM | > 10 µM | – | – | –
14 | CN(C)CCC(c1ccc(Cl)cc1)c1ccccn1 (stereo unspecified) [CHLORPHENIRAMINE] | – | > 30 µM | – | – | –
15 | CN(C)/N=N/c1[nH]cnc1C(N)=O [DACARBAZINE] | > 10 µM | > 10 µM | – | – | –
16 | O=C1Nc2ccc(Cl)cc2[C@@](C#CC2CC2)(C(F)(F)F)O1 [EFAVIRENZ] | 14 µM | 2.71 µM | – | – | –
17 | O=C(OCC(O)CO)c1ccccc1Nc1ccnc2cc(Cl)ccc12 (stereo unspecified) [GLAFENINE] | > 30 µM | – | > 30 µM | > 30 µM | 4.3 µM

Row | SMILES | AC50 [1] | AC50 [2] | AC50 [3] | AC50 [4] | AC50 [5]
18 | C[N+]1(C)CCC(OC(=O)C(O)(c2ccccc2)C2CCCC2)C1 (stereo unspecified) [GLYCOPYRRONIUM BROMIDE] | > 10 µM | > 30 µM | > 30 µM | – | –
19 | O=P1(NCCCl)OCCCN1CCCl (stereo unspecified) [IFOSFAMIDE] | > 30 µM | > 30 µM | – | – | –
20 | Cc1cccc(Nc2ccccc2C(=O)O)c1C [MEFENAMIC ACID] | > 10 µM | > 10 µM | > 30 µM | > 30 µM | > 30 µM
21 | C[C@@H](O)[C@H]1C(=O)N2C(C(=O)O)=C(S[C@@H]3CN[C@H](C(=O)N(C)C)C3)[C@H](C)[C@H]12 [MEROPENEM] | > 300 µM | > 10 µM | – | – | –
22 | Clc1ccc(C(c2ccccc2Cl)C(Cl)Cl)cc1 (stereo unspecified) [MITOTANE] | – | 1.4 µM | – | – | –
23 | CC1(C)NC(=O)N(c2ccc([N+](=O)[O-])c(C(F)(F)F)c2)C1=O [NILUTAMIDE] | > 30 µM | – | > 3 µM | > 30 µM | > 30 µM
24 | Cc1nc([N+](=O)[O-])cn1-c1ccc([N+](=O)[O-])cc1 [NITREFAZOLE] | > 30 µM | > 30 µM | – | – | –
25 | CC[C@H]1[C@@H](O)[C@@H]2[C@H](CC[C@]3(C)[C@@H]([C@H](C)CCC(=O)O)CC[C@@H]23)[C@@]2(C)CC[C@@H](O)C[C@@H]12 [OBETICHOLIC ACID] | > 30 µM | > 30 µM | > 30 µM | > 30 µM | > 30 µM
26 | CCCN1C[C@H](CSC)C[C@@H]2c3cccc4[nH]cc(c34)C[C@H]21 [PERGOLIDE] | > 30 µM | > 30 µM | – | – | –
27 | COCCCN1CCC(NC(=O)c2cc(Cl)c(N)c3c2OCC3)CC1 [PRUCALOPRIDE] | > 30 µM | – | > 30 µM | > 30 µM | > 30 µM
28 | COc1ccccc1OCC(O)CN1CCN(CC(=O)Nc2c(C)cccc2C)CC1 (stereo unspecified) [RANOLAZINE] | > 30 µM | > 30 µM | – | – | –
29 | Cc1c(C(=O)NN2CCCCC2)nn(-c2ccc(Cl)cc2Cl)c1-c1ccc(Cl)cc1 [RIMONABANT] | > 30 µM | > 30 µM | – | – | –
30 | CS(=O)(=O)c1ccc(C2=C(c3ccccc3)C(=O)OC2)cc1 [ROFECOXIB] | – | > 30 µM | > 30 µM | > 30 µM | > 30 µM
31 | Clc1ccc2nsnc2c1NC1=NCCN1 [TIZANIDINE] | – | > 30 µM | – | – | –
32 | Cc1cn([C@H]2C[C@H](N=[N+]=[N-])[C@@H](CO)O2)c(=O)[nH]c1=O [ZIDOVUDINE] | – | > 30 µM | > 30 µM | > 30 µM | > 30 µM
33 | NS(=O)(=O)Cc1noc2ccccc12 [ZONISAMIDE] | > 10 µM | > 10 µM | – | – | –
